The results in this text go back to patent publication US10481149B2.

In data set [1] the target is T1, BSEP (Rattus norvegicus, UniProt O70127).
T1 sequence (O70127 1-1321): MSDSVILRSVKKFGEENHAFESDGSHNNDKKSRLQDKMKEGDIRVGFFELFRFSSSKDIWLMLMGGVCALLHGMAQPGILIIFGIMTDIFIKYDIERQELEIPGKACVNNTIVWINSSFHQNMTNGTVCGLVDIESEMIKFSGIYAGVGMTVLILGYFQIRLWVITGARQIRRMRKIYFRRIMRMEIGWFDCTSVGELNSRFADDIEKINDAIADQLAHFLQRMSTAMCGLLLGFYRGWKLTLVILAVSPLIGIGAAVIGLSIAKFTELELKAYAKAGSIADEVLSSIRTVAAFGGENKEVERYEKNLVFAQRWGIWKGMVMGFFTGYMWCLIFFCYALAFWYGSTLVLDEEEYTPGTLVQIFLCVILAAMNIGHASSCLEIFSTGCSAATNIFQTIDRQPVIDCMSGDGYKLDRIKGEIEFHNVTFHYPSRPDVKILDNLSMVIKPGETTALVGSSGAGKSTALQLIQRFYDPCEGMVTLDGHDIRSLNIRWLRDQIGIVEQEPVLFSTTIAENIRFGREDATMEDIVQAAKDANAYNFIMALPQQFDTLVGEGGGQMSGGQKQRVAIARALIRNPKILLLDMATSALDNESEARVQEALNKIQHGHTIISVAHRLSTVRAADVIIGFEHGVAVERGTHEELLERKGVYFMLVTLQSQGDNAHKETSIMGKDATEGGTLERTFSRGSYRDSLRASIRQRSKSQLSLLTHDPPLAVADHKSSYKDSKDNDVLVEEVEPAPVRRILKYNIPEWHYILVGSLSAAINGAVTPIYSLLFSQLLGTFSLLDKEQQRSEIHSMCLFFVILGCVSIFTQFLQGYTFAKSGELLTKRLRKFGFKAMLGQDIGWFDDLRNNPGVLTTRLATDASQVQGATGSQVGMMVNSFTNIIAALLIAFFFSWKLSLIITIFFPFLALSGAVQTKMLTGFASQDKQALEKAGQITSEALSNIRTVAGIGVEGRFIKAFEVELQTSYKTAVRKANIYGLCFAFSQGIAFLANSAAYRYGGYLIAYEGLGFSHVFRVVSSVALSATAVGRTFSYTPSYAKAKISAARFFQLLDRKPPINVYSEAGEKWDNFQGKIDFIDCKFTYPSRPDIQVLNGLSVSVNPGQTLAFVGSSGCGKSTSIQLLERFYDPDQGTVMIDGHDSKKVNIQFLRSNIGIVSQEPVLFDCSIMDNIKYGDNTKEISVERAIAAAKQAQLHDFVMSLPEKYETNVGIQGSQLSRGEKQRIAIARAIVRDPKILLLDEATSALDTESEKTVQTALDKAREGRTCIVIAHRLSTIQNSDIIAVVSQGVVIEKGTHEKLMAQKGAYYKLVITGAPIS
Kind of data set: Inhibition of BSEP activity (transport of glycocholate) in rat hepatocytes.

Data set [2] has as its target T2, BSEP (Macaca fascicularis, UniProt D2CFL3). Kind of data set: in vitro. To be noted: monkey, hepatocytes in suspension, probe taurocholate.
In data set [3] the target is T2, BSEP. As to the kind of experiment: in vitro. The note with it: monkey, hepatocytes in suspension, probe glycocholate.
For data set [4], the target named is T3, BSEP (Canis lupus familiaris, UniProt B8K1W2).
T3 sequence (B8K1W2 1-1325): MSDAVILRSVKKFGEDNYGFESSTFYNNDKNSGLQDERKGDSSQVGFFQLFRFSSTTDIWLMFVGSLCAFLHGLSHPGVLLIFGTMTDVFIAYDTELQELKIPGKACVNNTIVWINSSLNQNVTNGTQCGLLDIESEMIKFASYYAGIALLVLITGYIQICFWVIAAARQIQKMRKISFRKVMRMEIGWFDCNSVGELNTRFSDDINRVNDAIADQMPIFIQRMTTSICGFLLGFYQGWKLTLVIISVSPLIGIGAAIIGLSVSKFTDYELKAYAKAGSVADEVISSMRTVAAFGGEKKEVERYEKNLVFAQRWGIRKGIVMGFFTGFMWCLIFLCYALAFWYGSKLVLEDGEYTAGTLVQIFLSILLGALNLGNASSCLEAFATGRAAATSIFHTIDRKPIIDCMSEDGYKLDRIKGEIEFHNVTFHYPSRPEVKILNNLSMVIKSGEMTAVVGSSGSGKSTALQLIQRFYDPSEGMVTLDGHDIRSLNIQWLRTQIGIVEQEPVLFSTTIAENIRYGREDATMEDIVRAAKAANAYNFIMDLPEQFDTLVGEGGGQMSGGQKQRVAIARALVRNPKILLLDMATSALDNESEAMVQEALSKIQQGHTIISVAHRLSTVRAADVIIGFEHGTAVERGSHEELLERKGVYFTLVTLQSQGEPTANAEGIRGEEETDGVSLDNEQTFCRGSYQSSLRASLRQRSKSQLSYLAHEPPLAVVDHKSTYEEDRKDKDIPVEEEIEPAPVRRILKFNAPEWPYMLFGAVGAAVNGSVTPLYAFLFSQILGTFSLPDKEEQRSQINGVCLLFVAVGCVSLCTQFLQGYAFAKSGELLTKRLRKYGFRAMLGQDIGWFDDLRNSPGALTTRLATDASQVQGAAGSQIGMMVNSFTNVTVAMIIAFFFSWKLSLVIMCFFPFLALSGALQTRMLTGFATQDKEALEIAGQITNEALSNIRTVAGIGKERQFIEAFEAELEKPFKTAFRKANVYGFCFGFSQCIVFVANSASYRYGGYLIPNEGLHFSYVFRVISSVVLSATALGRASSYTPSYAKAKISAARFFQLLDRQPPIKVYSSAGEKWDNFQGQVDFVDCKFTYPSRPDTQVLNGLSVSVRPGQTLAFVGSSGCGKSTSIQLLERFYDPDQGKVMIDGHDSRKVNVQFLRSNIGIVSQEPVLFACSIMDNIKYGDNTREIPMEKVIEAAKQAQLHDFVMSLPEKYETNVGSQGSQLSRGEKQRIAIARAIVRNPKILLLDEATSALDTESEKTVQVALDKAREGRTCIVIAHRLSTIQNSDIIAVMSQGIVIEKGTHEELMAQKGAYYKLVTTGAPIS
Kind of data set: IC50 for inhibition of BSEP activity in dog hepatocytes. Type of data set: cell-based. Here is the method:
(§1) Kinetic parameters were calculated using standard Michaelis-Menten kinetics. IC50 values were determined using Prism software (La Jolla, Calif.) or median-effect equation. [Chou et al., Theoretical basis, experimental design, and computerized simulation of synergism and antagonism in Drug Combination Studies. Pharmacological Reviews 58, 621, 2006]

For data set [5], the target named is T1, BSEP. As to the kind of experiment: IC50 for inhibition of BSEP activity in rat hepatocytes. Type of data set: cell-based. Here is the method: as §1
The target of data set [6] is T2, BSEP. Kind of data set: IC50 for inhibition of BSEP activity in monkey hepatocytes. The class given is cell-based. The note with it: hepatocytes in suspension. Here is the method: as §1
The mark [7] stands for this setting: hepatocytes in suspension, probe glycocholate.

By inhibition is commonly meant the percentage by which the read-out fell short of the control. The IC50 is the midpoint of a concentration-inhibition curve.

Read-outs that look alike come from different tables or passages of the source.

T2 sequence (D2CFL3 1-1323): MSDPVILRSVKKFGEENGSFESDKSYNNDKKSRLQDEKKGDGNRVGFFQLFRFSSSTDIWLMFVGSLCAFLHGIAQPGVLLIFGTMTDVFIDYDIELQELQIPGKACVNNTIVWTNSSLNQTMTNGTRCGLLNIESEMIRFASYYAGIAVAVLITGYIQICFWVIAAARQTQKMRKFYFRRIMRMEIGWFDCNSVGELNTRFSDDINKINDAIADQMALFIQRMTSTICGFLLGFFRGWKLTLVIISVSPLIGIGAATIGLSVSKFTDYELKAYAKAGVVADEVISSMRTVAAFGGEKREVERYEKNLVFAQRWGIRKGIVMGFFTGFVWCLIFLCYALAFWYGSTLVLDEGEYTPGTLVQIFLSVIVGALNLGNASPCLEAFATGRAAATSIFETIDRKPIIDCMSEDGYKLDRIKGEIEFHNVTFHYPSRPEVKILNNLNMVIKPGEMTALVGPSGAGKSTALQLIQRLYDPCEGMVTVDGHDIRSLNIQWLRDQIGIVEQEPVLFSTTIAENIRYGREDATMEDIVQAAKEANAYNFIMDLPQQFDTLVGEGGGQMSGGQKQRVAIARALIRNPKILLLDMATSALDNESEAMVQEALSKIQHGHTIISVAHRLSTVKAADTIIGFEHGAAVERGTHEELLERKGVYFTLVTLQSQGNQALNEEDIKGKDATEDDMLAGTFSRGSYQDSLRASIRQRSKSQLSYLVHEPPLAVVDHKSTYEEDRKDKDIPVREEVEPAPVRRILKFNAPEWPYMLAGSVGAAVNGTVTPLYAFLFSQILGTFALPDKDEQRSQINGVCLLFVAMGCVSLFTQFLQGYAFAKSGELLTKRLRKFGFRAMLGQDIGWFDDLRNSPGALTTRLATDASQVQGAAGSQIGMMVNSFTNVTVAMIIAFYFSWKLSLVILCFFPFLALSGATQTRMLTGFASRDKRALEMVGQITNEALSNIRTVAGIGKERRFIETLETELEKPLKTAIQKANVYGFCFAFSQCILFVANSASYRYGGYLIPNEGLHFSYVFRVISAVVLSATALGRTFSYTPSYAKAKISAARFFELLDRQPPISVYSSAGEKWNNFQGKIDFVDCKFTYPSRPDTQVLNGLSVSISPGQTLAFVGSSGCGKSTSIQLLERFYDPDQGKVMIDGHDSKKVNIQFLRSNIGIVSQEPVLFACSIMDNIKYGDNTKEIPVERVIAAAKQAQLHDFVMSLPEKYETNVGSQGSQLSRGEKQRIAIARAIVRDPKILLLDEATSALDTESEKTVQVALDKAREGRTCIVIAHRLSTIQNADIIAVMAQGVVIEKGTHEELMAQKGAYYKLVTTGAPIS

As for `COC(=O)N[C@H](C(=O)N[C@@H](Cc1ccccc1)[C@@H](O)CN(Cc1ccc(-c2ccccn2)cc1)NC(=O)[C@@H](NC(=O)OC)C(C)(C)C)C(C)(C)C` [Atazanavir, atazanavir], the results for the inhibition at 1 h, 1 μM in data set [1] (setting [7]), in data set [2] and in data set [3] were over 50%, under 50% and under 50%, respectively. Moreover, the inhibition at 1 h, 10 μM in data set [1] (setting [7]), in data set [2] and in data set [3] was over 50% in each case.

Take `C[C@@H](Oc1cc(-c2cnn(C3CCNCC3)c2)cnc1N)c1c(Cl)ccc(F)c1Cl` [Crizotinib, crizotinib]: the inhibition at 1 h, 1 μM in data set [1] (setting [7]), in data set [2] and in data set [3] was under 50% in each case. Besides, the values for the inhibition at 1 h, 10 μM in data set [1] (setting [7]), in data set [2] and in data set [3] were over 50%, under 50% and under 50%, respectively.

Consider `OC(Cn1cncn1)(Cn1cncn1)c1ccc(F)cc1F` [Fluconazole, fluconazole], for which the inhibition at 1 h, 1 μM in data set [1] (setting [7]), in data set [2] and in data set [3] was under 50% throughout. Moreover, the inhibition at 1 h, 10 μM in data set [1] (setting [7]), in data set [2] and in data set [3] was under 50% in each case.

For `CC(=O)N1CCN(c2ccc(OCC3COC(Cn4ccnc4)(c4ccc(Cl)cc4Cl)O3)cc2)CC1` (stereo not drawn) [Ketoconazole, ketoconazole], the inhibition at 1 h, 1 μM in data set [1] (setting [7]), in data set [2] and in data set [3] was under 50% in each case. Besides, the inhibition at 1 h, 10 μM in data set [1] (setting [7]), in data set [2] and in data set [3] was over 50% throughout. The 50% inhibitory concentration (IC50) in data set [4] is 1 to 10 µM; in data set [5], over 10 µM. Moreover, the IC50 at 1 h in data set [6] was in the range of 1 to 10 µM.

Regarding `Cc1c(O)cccc1C(=O)N[C@@H](CSc1ccccc1)[C@H](O)CN1C[C@H]2CCCC[C@H]2C[C@H]1C(=O)NC(C)(C)C` [Nelfinavir, nelfinavir], the inhibition at 1 h, 1 μM in data set [1] (setting [7]), in data set [2] and in data set [3] was under 50% each time. For the same compound, the inhibition at 1 h, 10 μM in data set [1] (setting [7]), in data set [2] and in data set [3] was over 50% each time.

Consider `CC(C)NCC(O)COc1cccc2ccccc12` (stereo not drawn) [Propranolol, propranolol], for which the inhibition at 1 h, 1 μM in data set [1] (setting [7]), in data set [2] and in data set [3] was under 50% each time. Further, the inhibition at 1 h, 10 μM in data set [1] (setting [7]), in data set [2] and in data set [3] was under 50% throughout.

Take `O=c1c(O)c(-c2ccc(O)c(O)c2)oc2cc(O)cc(O)c12` [Quercetin, quercetin]: the inhibition at 1 h, 1 μM in data set [1] (setting [7]), in data set [2] and in data set [3] was under 50% in each case. In addition, the inhibition at 1 h, 10 μM in data set [1] (setting [7]), in data set [2] and in data set [3] was under 50% throughout.

Regarding `C=C[C@H]1C[N@@]2CC[C@H]1C[C@@H]2[C@@H](O)c1ccnc2ccc(OC)cc12` [Quinidine, quinidine], the inhibition at 1 h, 1 μM in data set [1] (setting [7]), in data set [2] and in data set [3] was under 50% throughout. Also, the inhibition at 1 h, 10 μM in data set [1] (setting [7]), in data set [2] and in data set [3] was under 50% throughout.

As for `CO[C@H]1/C=C/O[C@@]2(C)Oc3c(C)c(O)c4c(O)c(c(/C=N/N5CCN(C)CC5)c(O)c4c3C2=O)NC(=O)/C(C)=C\C=C\[C@H](C)[C@H](O)[C@@H](C)[C@@H](O)[C@@H](C)[C@H](OC(C)=O)[C@@H]1C` [Rifampicin], the IC50 was over 10 µM in data set [4] and 1 to 10 µM in data set [5]. The half-maximal inhibitory concentration (IC50) at 1 h in data set [6] was under 1 µM.

Turning to `S=P(N1CC1)(N1CC1)N1CC1` [Thiotepa, thiotepa], the inhibition at 1 h, 1 μM in data set [1], in data set [2] and in data set [3] was under 50% throughout. Also, the inhibition at 1 h, 10 μM in data set [1], in data set [2] and in data set [3] was under 50% each time.

Take `Cc1c(C)c2c(c(C)c1O)CCC(C)(COc1ccc(CC3SC(=O)NC3=O)cc1)O2` (stereo not drawn) [Troglitazone, troglitazone]: the inhibition at 1 h, 1 μM is over 50% in data set [1] (setting [7]), under 50% in data set [2] and over 50% in data set [3]. The inhibition at 1 h, 10 μM in data set [1] (setting [7]), in data set [2] and in data set [3] was over 50% in each case. The IC50 in data set [4] and in data set [5] was 1 to 10 µM each time. Further, the IC50 at 1 h in data set [6] lay in the range of 1 to 10 µM.

Take `CC[C@]1(O)C[C@@H]2CN(CCc3c([nH]c4ccccc34)[C@@](C(=O)OC)(c3cc4c(cc3OC)N(C)[C@H]3[C@@](O)(C(=O)OC)[C@H](OC(C)=O)[C@]5(CC)C=CCN6CC[C@]43[C@@H]65)C2)C1` [Vinblastine, vinblastine]: the inhibition at 1 h, 1 μM in data set [1] (setting [7]), in data set [2] and in data set [3] was under 50% each time. For the same compound, the values for the inhibition at 1 h, 10 μM in data set [1] (setting [7]), in data set [2] and in data set [3] were over 50%, under 50% and under 50%, respectively.
